The target of assay [1] is T1, Beta-lactamase OXA-9 (Klebsiella aerogenes) (UniProt P0A3M4).
T1 sequence (whole entry): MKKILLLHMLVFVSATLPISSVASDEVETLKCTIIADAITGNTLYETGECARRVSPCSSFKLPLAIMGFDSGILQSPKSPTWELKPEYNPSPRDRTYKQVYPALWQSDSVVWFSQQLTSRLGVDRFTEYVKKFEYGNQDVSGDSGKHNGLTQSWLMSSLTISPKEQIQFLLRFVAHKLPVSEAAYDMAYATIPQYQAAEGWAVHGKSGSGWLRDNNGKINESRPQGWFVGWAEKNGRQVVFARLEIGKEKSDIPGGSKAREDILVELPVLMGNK
The assay is described as follows: Tested for inhibitory activity against beta-lactamase (groupIV) Klebsiella aerogenes 1082E.

For assay [2], the target named is Beta-lactamase OXA-1 (Escherichia coli) (UniProt P13661). Put plainly: Tested for inhibitory activity against beta-lactamase (groupV) Escherichia coli RGN.
Beta-lactamase OXA-1 (Escherichia coli), sequence (P13661 whole entry): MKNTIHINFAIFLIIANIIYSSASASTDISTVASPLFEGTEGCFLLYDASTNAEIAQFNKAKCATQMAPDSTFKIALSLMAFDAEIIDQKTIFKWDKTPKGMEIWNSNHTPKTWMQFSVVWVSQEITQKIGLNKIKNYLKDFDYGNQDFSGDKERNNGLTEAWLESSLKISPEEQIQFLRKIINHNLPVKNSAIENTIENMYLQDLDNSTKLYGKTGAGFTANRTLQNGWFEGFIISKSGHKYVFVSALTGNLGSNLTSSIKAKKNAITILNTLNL
Assay [3] addresses Beta-lactamase (Staphylococcus aureus) (UniProt P00807). The assay is described as follows: Tested for inhibitory activity against beta-lactamase (groupII) staphylococcus aureus 39/2 strain.
Assay [4] concerns the target Beta-lactamase TEM (Escherichia coli) (UniProt P62593). Put plainly: Tested for inhibitory activity against beta-lactamase (groupIII) Escherichia coli RPI.
For assay [5], the target named is Beta-lactamase OXA-1 (Escherichia coli) (UniProt P13661). Put plainly: Tested for inhibitory activity against beta-lactamase (groupV) Escherichia coli R57b.
For assay [6], the target named is Beta-lactamase (Enterobacter cloacae) (UniProt P05364). The assay is described as follows: Tested for inhibitory activity against beta-lactamase (groupI) Enterobacter cloacae P99.
Beta-lactamase (Enterobacter cloacae), sequence (P05364 21-381 limits assumed): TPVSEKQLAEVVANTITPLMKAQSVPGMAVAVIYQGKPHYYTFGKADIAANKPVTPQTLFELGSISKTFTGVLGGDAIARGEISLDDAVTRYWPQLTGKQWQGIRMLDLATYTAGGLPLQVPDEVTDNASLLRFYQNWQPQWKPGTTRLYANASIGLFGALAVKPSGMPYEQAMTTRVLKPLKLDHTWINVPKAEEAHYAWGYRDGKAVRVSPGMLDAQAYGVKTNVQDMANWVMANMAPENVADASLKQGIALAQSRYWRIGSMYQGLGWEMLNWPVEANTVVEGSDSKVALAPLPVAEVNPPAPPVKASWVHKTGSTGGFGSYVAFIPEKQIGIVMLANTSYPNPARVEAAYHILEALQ
Assay [7] addresses T1, Beta-lactamase OXA-9 (Klebsiella aerogenes). The assay is described as follows: Tested for inhibitory activity against beta-lactamase (groupIV) Klebsiella aerogenes 1082E in presence of ampicillin + 20 ug/mL of compound.
The target in assay [8] is Beta-lactamase OXA-1 (Escherichia coli) (UniProt P13661). Put plainly: Tested for inhibitory activity against beta-lactamase (groupV) Escherichia coli RGN in presence of ampicillin + 20 ug/mL of compound.
Assay [9] concerns the target Beta-lactamase (Enterobacter cloacae) (UniProt P05364). The assay is described as follows: Tested for inhibitory activity against beta-lactamase (groupI) Enterobacter cloacae P99 in presence of ampicillin + 80 ug/mL of compound.
In assay [10] the target is Beta-lactamase TEM (Escherichia coli) (UniProt P62593). Put plainly: Tested for inhibitory activity against beta-lactamase (groupIII) Escherichia coli RPI in presence of ampicillin + 80 ug/mL of compound.
Beta-lactamase TEM (Escherichia coli), sequence (P62593 whole entry): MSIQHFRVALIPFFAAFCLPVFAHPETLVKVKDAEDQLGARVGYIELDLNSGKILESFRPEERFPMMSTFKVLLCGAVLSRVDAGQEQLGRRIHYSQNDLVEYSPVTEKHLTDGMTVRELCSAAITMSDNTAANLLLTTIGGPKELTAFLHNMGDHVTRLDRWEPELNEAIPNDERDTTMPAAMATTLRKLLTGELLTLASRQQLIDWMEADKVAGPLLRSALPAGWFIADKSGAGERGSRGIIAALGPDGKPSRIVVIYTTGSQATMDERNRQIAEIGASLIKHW
The target is the same in assay [11]. The assay is described as follows: Tested for inhibitory activity against beta-lactamase (groupIII) Escherichia coli RPI in presence of ampicillin + 20 ug/mL of compound.
Assay [12] deals with Beta-lactamase (Staphylococcus aureus) (UniProt P00807). Put plainly: Tested for inhibitory activity against beta-lactamase (groupII) staphylococcus aureus 39/2 strain in presence of ampicillin + 20 ug/mL of compound.
Beta-lactamase (Staphylococcus aureus), sequence (P00807 whole entry): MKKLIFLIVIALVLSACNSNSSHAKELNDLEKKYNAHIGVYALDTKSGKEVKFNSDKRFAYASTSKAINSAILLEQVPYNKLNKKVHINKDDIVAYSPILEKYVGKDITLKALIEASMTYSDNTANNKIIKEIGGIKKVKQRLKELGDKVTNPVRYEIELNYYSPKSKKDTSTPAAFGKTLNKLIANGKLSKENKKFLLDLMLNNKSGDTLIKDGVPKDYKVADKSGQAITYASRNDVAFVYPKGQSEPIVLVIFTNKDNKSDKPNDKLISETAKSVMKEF
The target is the same in assay [13]. The assay is described as follows: Tested for inhibitory activity against beta-lactamase (groupII) staphylococcus aureus 39/2 strain in presence of ampicillin + 80 ug/mL of compound.
Assay [14] has as its target Beta-lactamase OXA-1 (Escherichia coli) (UniProt P13661). The assay is described as follows: Tested for inhibitory activity against beta-lactamase (groupV) Escherichia coli R57b in presence of ampicillin + 80 ug/mL of compound.
The target is the same in assay [15]. The assay is described as follows: Tested for inhibitory activity against beta-lactamase (groupV) Escherichia coli RGN in presence of ampicillin + 80 ug/mL of compound.
The target in assay [16] is T1, Beta-lactamase OXA-9 (Klebsiella aerogenes). Put plainly: Tested for inhibitory activity against beta-lactamase (groupIV) Klebsiella aerogenes 1082E in presence of ampicillin + 80 ug/mL of compound.
Assay [17] addresses Beta-lactamase OXA-1 (Escherichia coli) (UniProt P13661). The assay is described as follows: Tested for inhibitory activity against beta-lactamase (groupV) Escherichia coli R57b in presence of ampicillin + 20 ug/mL of compound.

Among the data in ChEMBL document CHEMBL1127139, “Synthesis and -lactamase inhibitory activity of 6-hydroxyethyl thiaclavulanic acid” (Bioorg Med Chem Lett, 1993) are MIC values, retold here.

Molecules are shown by their SMILES. Values after ≈ are worked out from the molar mass of the structure shown.

As for `CC1(C)S[C@@H]2[C@H](NC(=O)[C@H](N)c3ccccc3)C(=O)N2[C@H]1C(=O)O`, the MIC is over 100 µg/mL in assay [1]; 12.5 µg/mL (≈ 35.8 µM) in assay [2]; 1.56 µg/mL (≈ 4.46 µM) in assay [3]; over 100 µg/mL in assay [4]; 100 µg/mL (≈ 286 µM) in [5]; over 100 µg/mL in assay [6].

On to `C[C@H](O)[C@H]1C(=O)N2[C@@H]1S/C(=C\CO)[C@@H]2C(=O)O`, for which the MIC in assay [7] was over 100 µg/mL; in assay [8] it was 6.25 µg/mL; in [9], over 100 µg/mL; in assay [10], over 100 µg/mL; in assay [11], over 100 µg/mL; in assay [12], under 0.39 µg/mL. For the same compound, the MIC in [13] was under 0.39 µg/mL; in [14], 1.56 µg/mL; in assay [15] it was 3.12 µg/mL; in [16], over 100 µg/mL; in assay [17], 6.25 µg/mL.
